Results on 21 compounds are retold here after PubChem BioAssay AID248 (DTP/NCI, 2004).

Where “and” joins values, the source holds several entries; their conditions need not be identical. Equal values may be shown once. Inconclusive results and toxic doses are left out.

The assay has as its system L1210 leukemia ip in BDF1 mice, survival T/C. The assay can be described thus: NCI In Vivo Anticancer Drug Screen. Data for tumor model L1210 Leukemia (intraperitoneal) in B6D2F1 (BDF1) mice. To be noted: higher = longer survival. In a few lines: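 Tumor was transplanted into mice, which were then dosed with test compound or vehicle alone. Survival was recorded for each group, and the treated figure was expressed relative to the control figure.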

The mark [1] stands for this setting: endpoint: mean survival time, dose: 100.0 mg/kg/injection, schedule: Q01DX001 (ip), vehicle: Klucel (hydroxypropylcellulose) (HPC).
Setting [2] is: endpoint: mean survival time, dose: 200.0 mg/kg/injection, schedule: Q01DX001 (ip), vehicle: Klucel (hydroxypropylcellulose) (HPC).
[3] abbreviates: endpoint: mean survival time, dose: 400.0 mg/kg/injection, schedule: Q01DX001 (ip), vehicle: Klucel (hydroxypropylcellulose) (HPC).
The mark [4] stands for this setting: endpoint: mean survival time, dose: 100.0 mg/kg/injection, schedule: Q01DX001 (ip), vehicle: saline.
Setting [5] is: endpoint: mean survival time, dose: 200.0 mg/kg/injection, schedule: Q01DX001 (ip), vehicle: saline.
[6] abbreviates: endpoint: mean survival time, dose: 400.0 mg/kg/injection, schedule: Q01DX001 (ip), vehicle: saline.
[7] abbreviates: endpoint: mean survival time, dose: 100.0 mg/kg/injection, schedule: Q04DX003 (ip), vehicle: saline.
The mark [8] stands for this setting: endpoint: mean survival time, dose: 200.0 mg/kg/injection, schedule: Q04DX003 (ip), vehicle: saline.
The mark [9] stands for this setting: endpoint: mean survival time, dose: 400.0 mg/kg/injection, schedule: Q04DX003 (ip), vehicle: saline.
Where [10] appears, read: endpoint: mean survival time, dose: 50.0 mg/kg/injection, schedule: Q01DX009 (ip), vehicle: saline with Tween-80.
Where [11] appears, read: endpoint: mean survival time, dose: 100.0 mg/kg/injection, schedule: Q01DX009 (ip), vehicle: saline with Tween-80.
Setting [12] is: endpoint: mean survival time, dose: 200.0 mg/kg/injection, schedule: Q01DX009 (ip), vehicle: saline with Tween-80.

`CC(=O)OC1CCC2C3C(C)C4(O)C=CCCC(C)(O4)C3CCC12C` (stereo not given): the T/C was 100 % of control (endpoint: mean survival time, dose: 50.0 mg/kg/injection, schedule: Q01DX001 (sc), vehicle: steriod suspending solution); 89 % of control (endpoint: mean survival time, dose: 100.0 mg/kg/injection, schedule: Q01DX001 (sc), vehicle: steriod suspending solution); 96 % of control (endpoint: mean survival time, dose: 200.0 mg/kg/injection, schedule: Q01DX001 (sc), vehicle: steriod suspending solution); 105 % of control (endpoint: mean survival time, dose: 400.0 mg/kg/injection, schedule: Q01DX001 (sc), vehicle: steriod suspending solution).

Regarding `COc1ccc(S(=O)(=O)NCCC#N)cc1NC(C)=O`, the T/C runs as follows: under setting [1], 95 % of control; (endpoint: mean survival time, dose: 100.0 mg/kg/injection, schedule: Q01DX009 (ip), vehicle: saline sonified) 96 % of control; under setting [2], 97 % of control; (endpoint: mean survival time, dose: 200.0 mg/kg/injection, schedule: Q01DX009 (ip), vehicle: saline sonified) 96 % of control; under setting [3], 97 % of control; (endpoint: mean survival time, dose: 400.0 mg/kg/injection, schedule: Q01DX009 (ip), vehicle: saline sonified) 107 % of control.

As for `O=C1C=CC(=O)C(SCC(O)CO)=C1` (stereo not given), the T/C reads like this: (endpoint: mean survival time, dose: 9.5 mg/kg/injection, schedule: Q01DX001 (ip), vehicle: other) 94 % of control; (endpoint: mean survival time, dose: 19.0 mg/kg/injection, schedule: Q01DX001 (ip), vehicle: other) 95 % of control; (endpoint: mean survival time, dose: 38.0 mg/kg/injection, schedule: Q01DX001 (ip), vehicle: other) 100 % of control.

Regarding `COc1ccc(/C=C/[N+](=O)[O-])cc1`, the T/C reads like this: (endpoint: mean survival time, dose: 6.25 mg/kg/injection, schedule: Q04DX002 (ip), vehicle: saline with Tween-80) 97 % of control; (endpoint: mean survival time, dose: 12.5 mg/kg/injection, schedule: Q04DX002 (ip), vehicle: saline with Tween-80) 93 % of control; (endpoint: mean survival time, dose: 25.0 mg/kg/injection, schedule: Q04DX002 (ip), vehicle: other) 96 % of control; (endpoint: mean survival time, dose: 25.0 mg/kg/injection, schedule: Q04DX002 (ip), vehicle: saline with Tween-80) 89 % of control; (endpoint: mean survival time, dose: 25.0 mg/kg/injection, schedule: Q04DX003 (ip), vehicle: Klucel (hydroxypropylcellulose) (HPC)) 100 % of control; (endpoint: mean survival time, dose: 50.0 mg/kg/injection, schedule: Q04DX003 (ip), vehicle: Klucel (hydroxypropylcellulose) (HPC)) 103 % of control. Further, under “endpoint: mean survival time, dose: 100.0 mg/kg/injection, schedule: Q04DX003 (ip), vehicle: Klucel (hydroxypropylcellulose) (HPC)”, the T/C is 95 % of control.

Regarding `COP(=O)(OCCCCCl)C(Cl)(Cl)Cl` (stereo not given), the T/C reads like this: under setting [4], 102 % of control; under setting [5], 102 % of control; under setting [6], 104 % of control.

On to `ClC(Cl)(Cl)c1nc2nccnc2[nH]1`, for which the T/C is 98 % of control (endpoint: mean survival time, dose: 25.0 mg/kg/injection, schedule: Q04DX003 (ip), vehicle: saline with Tween-80); 97 % of control (endpoint: mean survival time, dose: 50.0 mg/kg/injection, schedule: Q04DX003 (ip), vehicle: saline with Tween-80); 96 % of control (endpoint: mean survival time, dose: 100.0 mg/kg/injection, schedule: Q04DX003 (ip), vehicle: saline sonified); 110 % of control (endpoint: mean survival time, dose: 100.0 mg/kg/injection, schedule: Q04DX003 (ip), vehicle: saline with Tween-80).

Consider `CC1SCC(NC(=O)N(CCCl)N=O)CS1` (stereo not given), for which the T/C is 150 % of control (endpoint: mean survival time, dose: 8.0 mg/kg/injection, schedule: Q01DX001 (ip), vehicle: saline with Tween-80); 264 % of control (endpoint: mean survival time, dose: 12.0 mg/kg/injection, schedule: Q01DX001 (ip), vehicle: saline with Tween-80); 389 % of control (endpoint: mean survival time, dose: 18.0 mg/kg/injection, schedule: Q01DX001 (ip), vehicle: saline with Tween-80); 368 % of control (endpoint: mean survival time, dose: 26.0 mg/kg/injection, schedule: Q01DX001 (ip), vehicle: saline with Tween-80); 104 % of control (endpoint: mean survival time, dose: 60.0 mg/kg/injection, schedule: Q01DX001 (ip), vehicle: saline with Tween-80).

Consider `CC(=O)C(N)CCC(=O)O` (stereo not given), for which the T/C runs as follows: (endpoint: mean survival time, dose: 100.0 mg/kg/injection, schedule: Q01DX009 (ip), vehicle: saline) 106 % of control; under setting [7], 97 % of control; (endpoint: mean survival time, dose: 200.0 mg/kg/injection, schedule: Q01DX009 (ip), vehicle: saline) 101 % of control; under setting [8], 97 % of control; (endpoint: mean survival time, dose: 400.0 mg/kg/injection, schedule: Q01DX009 (ip), vehicle: saline) 95 % of control; under setting [9], 94 % of control.

`O=C1NC2(C=CCCC2)C(O)(c2ccccc2)C12CCCCC2` (stereo not given): the T/C reads like this: (endpoint: mean survival time, dose: 75.0 mg/kg/injection, schedule: Q01DX001 (ip), vehicle: saline) 95 % of control; (endpoint: mean survival time, dose: 150.0 mg/kg/injection, schedule: Q01DX001 (ip), vehicle: saline) 86 % of control; (endpoint: mean survival time, dose: 300.0 mg/kg/injection, schedule: Q01DX001 (ip), vehicle: saline) 89 % of control.

Consider `CC(C#N)NC(=O)NC(C)C(N)=O` (stereo not given), for which the T/C under setting [4] is 107 % of control, the T/C under setting [5] was 107 % of control and the T/C under setting [6] was 97 % of control.

As to `Cc1cc(C)nc(NS(=O)(=O)c2ccc(NC(=O)Nc3ccc(F)cc3F)cc2)n1`, the T/C reads like this: under setting [10], 96 % of control; under setting [11], 93 % of control; under setting [12], 101 % of control.

Take `C[C@]12CC[C@H](O)C[C@H]1CC[C@@H]1[C@@H]2CC[C@]2(C)[C@@H](C3=CC(=O)OC3)CC[C@]12O`: the T/C (endpoint: mean survival time, dose: 50.0 mg/kg/injection, schedule: Q01DX001 (ip), vehicle: carboxymethylcellulose (CMC)) was 101 % of control; the T/C (endpoint: median survival time, dose: 2.0 mg/kg/injection, schedule: Q01DX005 (ip), vehicle: water) was 98 % of control; the T/C (endpoint: median survival time, dose: 4.0 mg/kg/injection, schedule: Q01DX005 (ip), vehicle: water) is 98 % of control; the T/C (endpoint: median survival time, dose: 8.0 mg/kg/injection, schedule: Q01DX005 (ip), vehicle: water) is 103 % of control.

In the case of `CCCCCCCCCCOS(C)=O` (stereo not given), the T/C under setting [10] was 100 % of control, the T/C under setting [11] is 92 % of control and the T/C under setting [12] was 88 % of control.

On to `CCCC(C)OC(=O)Nc1cccc(O)c1` (stereo not given), for which the T/C was 101 % of control under setting [11]; 101 % of control under setting [12]; 102 % of control (endpoint: mean survival time, dose: 400.0 mg/kg/injection, schedule: Q01DX009 (ip), vehicle: saline with Tween-80).

As for `COCCNc1ccc(NCCOC)c2c1C(=O)c1ccccc1C2=O`, the T/C was 91 % of control (endpoint: mean survival time, dose: 87.5 mg/kg/injection, schedule: Q04DX003 (ip), vehicle: Klucel (hydroxypropylcellulose) (HPC)); 91 % of control (endpoint: mean survival time, dose: 175.0 mg/kg/injection, schedule: Q04DX003 (ip), vehicle: Klucel (hydroxypropylcellulose) (HPC)); 88 % of control (endpoint: mean survival time, dose: 350.0 mg/kg/injection, schedule: Q04DX003 (ip), vehicle: Klucel (hydroxypropylcellulose) (HPC)).

With `CCCCCCCCCCCC[P+](CCCC)(CCCC)CCCC`, the T/C (endpoint: mean survival time, dose: 0.55 mg/kg/injection, schedule: Q01DX Z (ip), vehicle: saline) is 110 % of control; the T/C (endpoint: mean survival time, dose: 1.16 mg/kg/injection, schedule: Q01DX Z (ip), vehicle: saline) is 100 % of control; the T/C (endpoint: mean survival time, dose: 1.25 mg/kg/injection, schedule: Q01DX Z (ip), vehicle: saline) is 110 % of control.

For the compound `CC(=O)Nc1cc(-c2ccccc2)c(NC(C)=O)c(-c2ccccc2)c1`, the T/C under setting [4] was 90 % of control, the T/C under setting [5] is 90 % of control and the T/C under setting [6] is 94 % of control.

As for `Cc1cc2oc(/C=N\Nc3nc4ccccc4s3)c(C)c2cc1C`, the T/C runs as follows: (endpoint: mean survival time, dose: 100.0 mg/kg/injection, schedule: Q01DX009 (ip), vehicle: Klucel (hydroxypropylcellulose) (HPC)) 94 % of control; (endpoint: mean survival time, dose: 200.0 mg/kg/injection, schedule: Q01DX009 (ip), vehicle: Klucel (hydroxypropylcellulose) (HPC)) 96 % of control; (endpoint: mean survival time, dose: 400.0 mg/kg/injection, schedule: Q01DX009 (ip), vehicle: Klucel (hydroxypropylcellulose) (HPC)) 108 % of control.

As to `CCNS(=O)(=O)O`, the T/C reads like this: (endpoint: mean survival time, dose: 25.0 mg/kg/injection, schedule: Q01DX001 (ip), vehicle: saline) 98 % of control; (endpoint: mean survival time, dose: 50.0 mg/kg/injection, schedule: Q01DX001 (ip), vehicle: saline) 104 % of control; under setting [4], 107 % of control and 120 % of control; under setting [5], 102 % of control; under setting [6], 105 % of control.

Turning to `Cc1ccc(C)c(CNc2cc(=O)[nH]c(=O)[nH]2)c1`, the T/C was 97 % of control under setting [1], 101 % of control under setting [2] and 97 % of control under setting [3].

Take `CCOC(=O)C(C)(C)CSC(C)(C)C(=O)OCC`: the T/C under setting [7] is 110 % of control, the T/C under setting [8] is 101 % of control and the T/C under setting [9] was 110 % of control.
